Active and inactive are the calls of the source. How the calls were made is not given here.
Test system: CCRIS mutagenicity, Ames/micronucleus/aberration tests
Test: CCRIS mutagenicity studies
[1] = Test System: AMES SALMONELLA TYPHIMURIUM, Strain/Indicator: TA98, Metabolic Activation: NONE, Method: STANDARD PLATE
[2] = Test System: AMES SALMONELLA TYPHIMURIUM, Strain/Indicator: TA100, Metabolic Activation: NONE, Method: STANDARD PLATE

## c1ccc2c(c1)-c1cccc3c1c-2cc1c2ccccc2ccc31
Test System: HUMAN H1A1V2 CELLS, Strain/Indicator: TK LOCUS, Metabolic Activation: NONE, Method: SUSPENSION/PLATE
  mutagenic call: inactive; negative

## CCCCN(C(CCC)OC(C)=O)[N+](=O)[O-] (stereo unspecified)
Test System: E. COLI, Strain/Indicator: WP2 (HCR-), Metabolic Activation: NONE
  mutagenic call: active; positive

## Oc1ccc2c(ccc3[nH]c4ccc5ccccc5c4c32)c1
[1]
  mutagenic call: inactive; negative
Test System: AMES SALMONELLA TYPHIMURIUM, Strain/Indicator: TA98, Metabolic Activation: RAT, LIVER, S-9, 3-METHYLCHOLANTHRENE, Method: STANDARD PLATE
  mutagenic call: active; positive
[2]
  mutagenic call: inactive; negative
Test System: AMES SALMONELLA TYPHIMURIUM, Strain/Indicator: TA100, Metabolic Activation: RAT, LIVER, S-9, 3-METHYLCHOLANTHRENE, Method: STANDARD PLATE
  mutagenic call: active; positive
Test System: AMES SALMONELLA TYPHIMURIUM, Strain/Indicator: TM677, Metabolic Activation: NONE, Method: PREINCUBATION
  mutagenic call: inactive; negative
Test System: AMES SALMONELLA TYPHIMURIUM, Strain/Indicator: TM677, Metabolic Activation: RAT, LIVER, S-9, 3-METHYLCHOLANTHRENE (1%), Method: PREINCUBATION
  mutagenic call: active; positive
Test System: AMES SALMONELLA TYPHIMURIUM, Strain/Indicator: TM677, Metabolic Activation: RAT, LIVER, S-9, 3-METHYLCHOLANTHRENE (10%), Method: PREINCUBATION
  mutagenic call: active; positive
Test System: AMES SALMONELLA TYPHIMURIUM, Strain/Indicator: TM677, Metabolic Activation: RAT, LIVER, S-9, AROCLOR 1254 (10%), Method: PREINCUBATION
  mutagenic call: active; positive

## Cc1ccncc1
Test System: AMES SALMONELLA TYPHIMURIUM, Strain/Indicator: TA97, Metabolic Activation: NONE, Method: STANDARD PLATE
  mutagenic call: inactive; negative
Test System: AMES SALMONELLA TYPHIMURIUM, Strain/Indicator: TA97, Metabolic Activation: RAT, LIVER, S-9, AROCLOR 1254, Method: STANDARD PLATE
  mutagenic call: inactive; negative
[1]
  mutagenic call: inactive; negative
Test System: AMES SALMONELLA TYPHIMURIUM, Strain/Indicator: TA98, Metabolic Activation: RAT, LIVER, S-9, AROCLOR 1254, Method: STANDARD PLATE
  mutagenic call: inactive; negative
[2]
  mutagenic call: inactive; negative
Test System: AMES SALMONELLA TYPHIMURIUM, Strain/Indicator: TA100, Metabolic Activation: RAT, LIVER, S-9, AROCLOR 1254, Method: STANDARD PLATE
  mutagenic call: inactive; negative
Test System: AMES SALMONELLA TYPHIMURIUM, Strain/Indicator: TA102, Metabolic Activation: NONE, Method: STANDARD PLATE
  mutagenic call: inactive; negative
Test System: AMES SALMONELLA TYPHIMURIUM, Strain/Indicator: TA102, Metabolic Activation: RAT, LIVER, S-9, AROCLOR 1254, Method: STANDARD PLATE
  mutagenic call: inactive; negative

## ClCc1ccc2c3c(cccc13)-c1ccccc1-2
[1]
  mutagenic call: active; positive
[2]
  mutagenic call: active; positive

## Clc1ccc(Cl)c(Cl)c1Cl
End Point: IN VITRO CHROMOSOMAL ABERRATIONS, Test System: CHO-LB CELLS, Metabolic Activation: NONE
  mutagenic call: inactive; negative
End Point: IN VITRO CHROMOSOMAL ABERRATIONS, Test System: CHO-LB CELLS, Metabolic Activation: RAT, LIVER, S-9, AROCLOR 1254
  mutagenic call: inactive; negative
Test System: AMES SALMONELLA TYPHIMURIUM, Strain/Indicator: TA98, Metabolic Activation: HAMSTER, LIVER, S-9, AROCLOR 1254, Method: PREINCUBATION
  mutagenic call: inactive; negative
Test System: AMES SALMONELLA TYPHIMURIUM, Strain/Indicator: TA98, Metabolic Activation: NONE, Method: PREINCUBATION
  mutagenic call: inactive; negative
Test System: AMES SALMONELLA TYPHIMURIUM, Strain/Indicator: TA98, Metabolic Activation: RAT, LIVER, S-9, AROCLOR 1254, Method: PREINCUBATION
  mutagenic call: inactive; negative
Test System: AMES SALMONELLA TYPHIMURIUM, Strain/Indicator: TA100, Metabolic Activation: HAMSTER, LIVER, S-9, AROCLOR 1254, Method: PREINCUBATION
  mutagenic call: inactive; negative
Test System: AMES SALMONELLA TYPHIMURIUM, Strain/Indicator: TA100, Metabolic Activation: NONE, Method: PREINCUBATION
  mutagenic call: inactive; negative
Test System: AMES SALMONELLA TYPHIMURIUM, Strain/Indicator: TA100, Metabolic Activation: RAT, LIVER, S-9, AROCLOR 1254, Method: PREINCUBATION
  mutagenic call: inactive; negative
Test System: AMES SALMONELLA TYPHIMURIUM, Strain/Indicator: TA1535, Metabolic Activation: HAMSTER, LIVER, S-9, AROCLOR 1254, Method: PREINCUBATION
  mutagenic call: inactive; negative
Test System: AMES SALMONELLA TYPHIMURIUM, Strain/Indicator: TA1535, Metabolic Activation: NONE, Method: PREINCUBATION
  mutagenic call: inactive; negative
Test System: AMES SALMONELLA TYPHIMURIUM, Strain/Indicator: TA1535, Metabolic Activation: RAT, LIVER, S-9, AROCLOR 1254, Method: PREINCUBATION
  mutagenic call: inactive; negative
Test System: AMES SALMONELLA TYPHIMURIUM, Strain/Indicator: TA1537, Metabolic Activation: HAMSTER, LIVER, S-9, AROCLOR 1254, Method: PREINCUBATION
  mutagenic call: inactive; negative
Test System: AMES SALMONELLA TYPHIMURIUM, Strain/Indicator: TA1537, Metabolic Activation: NONE, Method: PREINCUBATION
  mutagenic call: inactive; negative
Test System: AMES SALMONELLA TYPHIMURIUM, Strain/Indicator: TA1537, Metabolic Activation: RAT, LIVER, S-9, AROCLOR 1254, Method: PREINCUBATION
  mutagenic call: inactive; negative

## FC(F)(F)I
Test System: AMES SALMONELLA TYPHIMURIUM, Strain/Indicator: TA98, Metabolic Activation: NONE, Method: DESICCATOR
  mutagenic call: active; positive
Test System: AMES SALMONELLA TYPHIMURIUM, Strain/Indicator: TA98, Metabolic Activation: RAT, LIVER, S-9, AROCLOR 1254, Method: DESICCATOR
  mutagenic call: active; positive
Test System: AMES SALMONELLA TYPHIMURIUM, Strain/Indicator: TA100, Metabolic Activation: NONE, Method: DESICCATOR
  mutagenic call: active; positive
Test System: AMES SALMONELLA TYPHIMURIUM, Strain/Indicator: TA100, Metabolic Activation: RAT, LIVER, S-9, AROCLOR 1254, Method: DESICCATOR
  mutagenic call: active; positive
Test System: AMES SALMONELLA TYPHIMURIUM, Strain/Indicator: TA1535, Metabolic Activation: NONE, Method: DESICCATOR
  mutagenic call: active; positive
Test System: AMES SALMONELLA TYPHIMURIUM, Strain/Indicator: TA1535, Metabolic Activation: RAT, LIVER, S-9, AROCLOR 1254, Method: DESICCATOR
  mutagenic call: active; positive
Test System: AMES SALMONELLA TYPHIMURIUM, Strain/Indicator: TA1537, Metabolic Activation: NONE, Method: DESICCATOR
  mutagenic call: active; positive
Test System: AMES SALMONELLA TYPHIMURIUM, Strain/Indicator: TA1537, Metabolic Activation: RAT, LIVER, S-9, AROCLOR 1254, Method: DESICCATOR
  mutagenic call: active; positive
Test System: AMES SALMONELLA TYPHIMURIUM, Strain/Indicator: TA1538, Metabolic Activation: NONE, Method: DESICCATOR
  mutagenic call: inactive; negative
Test System: AMES SALMONELLA TYPHIMURIUM, Strain/Indicator: TA1538, Metabolic Activation: RAT, LIVER, S-9, AROCLOR 1254, Method: DESICCATOR
  mutagenic call: inactive; negative
Test System: MOUSE LYMPHOMA, Strain/Indicator: L5178Y (TK+/TK-), Metabolic Activation: NONE, Method: SUSPENSION/PLATE
  mutagenic call: inactive; negative
Test System: MOUSE LYMPHOMA, Strain/Indicator: L5178Y (TK+/TK-), Metabolic Activation: RAT, LIVER, S-9, AROCLOR 1254, Method: SUSPENSION/PLATE
  mutagenic call: inactive; negative

From PubChem BioAssay AID1259407 (Chemical Carcinogenesis Research Information System (CCRIS), 2018)
